Data taken from paper PMC8096218, “Global RNA profiles show target selectivity and physiological effects of peptide-delivered antisense antibiotics” (Nucleic Acids Research, 2021).
Several values for one entry are separate records, joined by “and”; a condition that tells them apart may be missing. Equal entries are not always repeated.

Columns and labels:
Assay type in all cases: cell-based, Salmonella enterica serovar Typhimurium
acpP mRNA = assay: RNA-seq differential expression, target transcript; settings: 5 μM KFF-/RXR-constructs, 10 μM Tat-constructs, triplicates; for reduction in acpP transcript levels (RNA-seq): 15 min post treatment, ∼10^6 cfu/ml, versus water control; for logFC acpP: edgeR, versus water, 15 min
Method: Bacterial overnight cultures were diluted 1:100 in fresh MHB and grown to OD600 0.5. The obtained cultures were diluted to ∼10^6 cfu/ml in non-cation-adjusted MHB. Afterward, the bacterial solution was transferred into low-binding 5 ml tubes (LABsolute) along with the 20× PNA, peptide or PPNA solution. The final concentrations were 5 μM for KFF- and RXR-PNAs, and 10 μM for Tat-PNAs. Equimolar concentrations were used for the respective peptide control conditions. As a negative control, cells were treated with the respective volume of sterile nuclease-free water, which was used as solvent for the test compounds.
A time kinetic was performed for subsequent northern blot analysis (5, 10, 15 min), in which the reaction was stopped at the indicated time points by using RNAprotect Bacteria (Qiagen). For RNA-seq analyses, adding RNAprotect Bacteria at 15 min post treatment stopped the reactions with the indicated PPNA constructs or the respective peptide. After vortexing for 5 s, the samples were incubated at room temperature for 10 min, followed by cell pelleting at 4°C and 21 100 ×g for 20 min. Pellets were directly used for RNA isolation or stored at –20°C (<2 days) until further processing. RNA was purified from bacterial pellets using isolation protocol #3, as described above (0.5 mg/ml lysozyme, miRNeasy).
DNase treatment, cDNA library preparation and sequencing was conducted at Vertis (Munich, Germany). The RNA samples were first fragmented using ultrasound (4 pulses of 30 s each at 4°C). Then, an oligonucleotide adapter was ligated to the 3′ ends of the RNA molecules. First-strand cDNA synthesis was performed using M-MLV reverse transcriptase and the 3′ adapter as primer. The first-strand cDNA was purified and the 5′ Illumina TruSeq sequencing adapter was ligated to the 3′ end of the antisense cDNA. The resulting cDNA was PCR-amplified to about 10–20 ng/μl using a high fidelity DNA polymerase. The cDNA was purified using the Agencourt AMPure XP kit (Beckman Coulter Genomics) and was analyzed by capillary electrophoresis. For Illumina NextSeq sequencing, the samples were pooled in approximately equimolar amounts. The cDNA pool was sequenced on an Illumina NextSeq 500 system using 75 bp read length.
Reads from the RNA-Seq experiments were trimmed, filtered and mapped against the S. enterica subsp. enterica serovar Typhimurium SL1344 reference genome and the three plasmids pSLT_SL1344, pCol1B9_SL1344 (other name is p2), and pRSF1010_SL1344 ([19]). BBDuk was applied to trim bases with a Phred quality score of <10, and adapters were removed simultaneously. Reads were then mapped against the reference genome using BBMap (v38.84) and then assigned genomic features, including both coding sequences and annotated sRNAs ([19],[29]) using the featureCounts method of the Subread (2.0.1) package.
All downstream analysis was performed using packages from the R/Bioconductor project. The raw read counts were imported and analyzed with edgeR (v3.30.0). Each set of PNA-peptide conjugate experiments (i.e. experiments with KFF, RXR and Tat peptide) was analyzed simultaneously. Genes with less than 14.6 counts per million (CPM) in at least three libraries were filtered. This cutoff value was calculated using 10/L, where L is the library size of the smallest sample (minimum library size) in millions.
Raw read counts were normalized by trimmed mean of M values (TMM) normalization. Differential expression analysis was conducted using edgeR ([31]). Estimation of quasi-likelihood (QL) dispersions was then run with the […] function. Then contrasts between all samples versus the water controls were created as input for the glmQLTest function.
Genes with an absolute fold change >2 and an adjusted P-value (Benjamini–Hochberg, ([32])) <0.001 were considered differentially expressed.

LT2 PhoP^C = assay: MIC determination by broth microdilution; settings: ∼10^5 cfu/ml; for increase in the MIC in the PhoP^C background compared to the wild-type strain: LT2 PhoP^C versus LT2 wt; for MIC in μM, LT2 PhoP^C: Table 3, three biological replicates
Method: MIC values were determined by broth microdilution according to standard protocols with a few modifications ([26]). An overnight bacterial cell culture, supplemented with the appropriate antibiotic when needed, was diluted 1:100 in fresh MHB and grown to OD600 0.5. The obtained culture was diluted to ∼10^5 cfu/ml or 10^6 cfu/ml, as indicated, in non-cation-adjusted MHB. Subsequently, 190 μl bacterial solution was dispensed into a 96-well plate (Thermo Fisher Scientific) along with 10 μl of a 20x PPNA, PNA or peptide working solution. Growth was monitored by measuring the OD at 600 nm every 20 min in a Synergy H1 plate reader (Biotek) with continuous double-orbital shaking (237 cpm) at 37°C for 24 h.
Fig. S5. Growth k inetics for MIC determ ination of 10^5 cfu/m l Salmonella wt (LT 2) and its isogenic
Pho PC m utant in the presen ce of var ying co ncentra tio n s of the in dicat ed co njugat e s. ( A) KFF-acpP,
KFF-acpP-scram bled (scr) or KFF peptide in s erial dilutions from 10 µM to 0.3 µM. ( B) RXR- acpP,
RXR- acpP-scram bled (scr) or RXR peptide in serial dilutions from 10 µM to 0.3 µ M. ( C) T at-acpP,
T at-acpP-scram bled (scr) or T at peptide in serial dilutions from 20 µM to 0.6 µM. Data represent
the average of three biological replicates, error bars indicate standard error of the m ean (SEM).
(1 picture or pasted object on this page, not shown here)

Salmonella wt = assay: Kinetics of bactericidal effects (cfu determination and spot assay); settings: ∼10^6 cfu/ml, 5 μM KFF-acpP, 5 μM RXR-acpP, 10 μM Tat-acpP versus scrambled counterparts; for time post treatment from which killing / reduced cfu/ml was visible: time points 15, 20, 40, 60, 120 min, performed three times
Method: An overnight bacterial cell culture was diluted 1:100 in fresh MHB and grown to OD600 0.5. The obtained culture was diluted to approximately 10^6 cfu/ml in non-cation-adjusted MHB. Afterwards, aliquots of 10 μl were directly used as input condition for cfu determination and spot assay on LB agar plates. Regarding the latter, serial dilutions were prepared as indicated, to evaluate the alteration of living bacteria upon exposure to the different PPNAs. At the same time, 190 μl of this bacterial solution was placed into 2 ml eppendorf tubes along with 10 μl of a 20× on-target or scrambled PPNA solution, adjusting the indicated MICs. At the indicated time points post treatment, aliquots were used for cfu determination and spot assay.
Figure 3. Kinetics of bactericidal effects for (A) 5 μM KFF-acpP versus 5 μM KFF-acpP-scr, (B) 5 μM RXR-acpP versus 5 μM RXR-acpP-scr and (C) 10 μM Tat-acpP versus 10 μM Tat-acpP-scr against Salmonella wt (∼10^6 cfu/ml). After the indicated time points post treatment (15, 20, 40, 60, 120 min), aliquots of each sample were harvested to determine the number of viable cells over time (cfu/ml […]; left panels). Additional aliquots were subjected to spot assays on LB agar plates, including the indicated dilutions (right panels). The experiment was performed three times. Error bars indicate standard error of the mean.

## GRKKKRRQRRRYK [Tat-acpP, Tat peptide conjugated to 10-mer antisense PNA against acpP]
acpP mRNA
  reduction in acpP transcript levels (RNA-seq): ~3 fold
  logFC acpP: -1.6191
LT2 PhoP^C
  increase in the MIC in the PhoP^C background compared to the wild-type strain: at least two to four times more resistant
  MIC in μM, LT2 PhoP^C: 10 µM
Salmonella wt
  bactericidal effects (cfu/ml, spot assay): time-delayed and less pronounced
  time post treatment from which killing / reduced cfu/ml was visible: ≥ 40 min

## RXRRXRRXRRXRXB [RXR-acpP, RXR peptide conjugated to 10-mer antisense PNA against acpP]
acpP mRNA
  reduction in acpP transcript levels (RNA-seq): 4.5- to 5 fold
  logFC acpP: -2.35
LT2 PhoP^C
  increase in the MIC in the PhoP^C background compared to the wild-type strain: 2 fold
  MIC in μM, LT2 PhoP^C: 2.5 µM
Salmonella wt
  bactericidal effects (cfu/ml, spot assay): fast and strong killing
  time post treatment from which killing / reduced cfu/ml was visible: ≥ 15 min

## KFFKFFKFFK [KFF-acpP, KFF peptide conjugated to 10-mer antisense PNA against the translational start site of acpP]
acpP mRNA
  reduction in acpP transcript levels (RNA-seq): 4.5- to 5 fold
  logFC acpP: -2.241
LT2 PhoP^C
  MIC in μM, LT2 PhoP^C: did not influence the inhibitory activity and 1.25 μM
Salmonella wt
  bactericidal effects (cfu/ml, spot assay): fast and strong killing
  time post treatment from which killing / reduced cfu/ml was visible: ≥ 15 min
